SMILES strings stand for the structures.

Broadly, the IC50 is the concentration that inhibits the measured activity by half. Read a high IC50 as weaker potency in that assay.

One data set concerns SW1088. The experiment in a line: Cell proliferation assay. In kind it is cell-based, Homo sapiens. As to conditions: SW1088, brain, grade II astrocytoma, 72 hours. The gist of the method: (§1)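 Cells plated at 4000 per well; overnight incubation at 37°C, 5% CO2. Compound treatment followed. Cells then fixed (4% formaldehyde), permeabilized (0.2% Triton X-100) and stained with 1 μg/mL DAPI for imaging-based nuclear counts, or lysed with CellTiter-Glo reagent for luminescence.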

Data set [1] relates to NCI-H2228. The experiment in a line: Cell proliferation assay. In kind it is cell-based, Homo sapiens. The following applies: NCI-H2228, lung, NSCLC, 72 hours. An outline of the steps:
as §1

The subject of a further data set is LoVo. Nature of the data set: Cell proliferation assay. In kind it is cell-based, Homo sapiens. The following applies: colorectal carcinoma, 72 hours. The gist of the method: as §1
The next data set concerns NCI-H1581. Nature of the data set: Cell proliferation assay. In kind it is cell-based, Homo sapiens. The following applies: NCI-H1581, lung, NSCLC, 72 hours. An outline of the steps: as §1
A further data set deals with NCI-H460. The experiment in a line: Cell proliferation assay. In kind it is cell-based, Homo sapiens. The following applies: NCI-H460, lung carcinoma, 72 hours. The gist of the method:
as §1

In the next data set the test system is NCI-H1915. Nature of the data set: Cell proliferation assay. In kind it is cell-based, Homo sapiens. The following applies: NCI-H1915, lung, NSCLC, 72 hours. The gist of the method: as §1
The test system of the next data set is SK-HEP-1. The experiment in a line: Cell proliferation assay. In kind it is cell-based, Homo sapiens. The following applies: SK-HEP-1, liver, hepatocellular carcinoma, 72 hours. The gist of the method: as §1
For a further data set, the system named is SNU-449. The experiment in a line: Cell proliferation assay. In kind it is cell-based, Homo sapiens. The following applies: SNU-449, liver, hepatocellular carcinoma, 72 hours. An outline of the steps:
as §1

The next data set relates to MHCC97H. The experiment in a line: Cell proliferation assay. In kind it is cell-based, Homo sapiens. The following applies: liver, hepatocellular carcinoma, 72 hours. The gist of the method: as §1
For data set [2] the following is noted: mouse, in vivo, po, 30 mg/kg; cited from earlier work.
The subject of data set [3] is NCI-H2228. The experiment in a line: Subcutaneous NCI-H2228 non-small cell lung cancer xenograft. In kind it is in vivo, BALB/c nude mice. The following applies: 50 mg/kg daily oral, 28 days, measured day 34. Here is the method:
The efficacy of GLR2007 was evaluated in human GBM and breast cancer orthotopic cell-line-derived xenografts in NOD/SCID mice (Shanghai Lingchang Biotechnology Co. Ltd, Shanghai, China) and BALB/c nude mice (Shanghai Sino-British SIPPR/BK Laboratory Animal Co. Ltd, Shanghai, China), and human lung, colorectal, and liver cancer subcutaneous cell-line-derived xenografts in BALB/c nude mice (Nanjing University National Resource Center, Nanjing, China, or Beijing Anikeeper Biotech Co., Beijing, China). Mice were maintained in humidity- and temperature-controlled conditions with food and water available ad libitum. For subcutaneous models, female BALB/c nude mice were inoculated at 4–8 weeks old with 3×10^6–1×10^7 tumor cells (see Table 1 for xenograft model cell types) in the right flank for tumor development. Randomization was performed when the mean tumor volume reached 118–171 mm^3.

Data set [4] has as its system breast cancer resistance protein (BCRP). The following applies: cited from earlier work.
For another data set, the system named is P-glycoprotein. As to conditions: cited from earlier work.
Another data set deals with CT26.WT. The experiment in a line: Cell proliferation assay. In kind it is cell-based, Mus musculus. The following applies: colorectal carcinoma, 72 hours. Here is the method: (§2) To quantify cell proliferation, either the nuclei of live cells were counted following staining with 4’,6-diamidino-2-phenylindole (DAPI; Sigma-Aldrich, Burlington, MA, USA), or metabolically active cells were detected using a CellTiter-Glo assay (Promega Corporation, Madison, WI, USA). Cells from a range of human and mammalian tumor cell lines (American Type Culture Collection, Manassas, VA, USA) were seeded at 4000 cells per well in 100 μL of culture medium in a 96-well plate and incubated overnight at 37°C with 5% CO2. […] In the DAPI staining method, cells were washed using 1× phosphate-buffered saline (PBS; Gibco Thermo Fisher Scientific, Waltham, MA, USA), fixed with 4% formaldehyde, permeabilized with 0.2% Triton X-100 (Sigma-Aldrich), washed again, and stained with 1 μg/mL DAPI to visualize cell nuclei. Cells were washed with 1× PBS three times, and 100 μL 1× PBS was added to each well. Plates were scanned using an IN Cell Analyzer 2200 (GE Healthcare Life Sciences, Chicago, IL, USA) and the number of cells per well was recorded. In the CellTiter-Glo assay, 60 μL of CellTiter-Glo luminescent solution was added to each well after incubation with the test compounds, and the assay plate was scanned using a Tecan Infinite M1000 PRO microplate reader (Tecan Group AG, Männedorf, Switzerland) to record luminescent signals.

Another data set concerns U87-MG. The following applies: cell line U87-MG; cited from earlier work.
In a further data set the test system is BRL. The experiment in a line: Cell proliferation assay. As to conditions: liver, normal, 72 hours. In kind it is cell-based, Rattus norvegicus. Here is the method: as §2
A short description of data set [5]: Excretion of radioactivity in intact rats. In kind it is in vivo, Sprague Dawley rats. As for the experimental part: (§3) To investigate the degree to which GLR2007 penetrated organs and tissues, and the levels of excretion of the compound, rats were dosed with radiolabeled GLR2007 and whole-body autoradiography was performed. Sprague Dawley rats (Vital River Laboratory Animal Technology Co., Beijing, China; N=38, female n=19; 8–11 weeks old) were maintained in humidity- and temperature-controlled conditions on a 12-hour light/dark cycle, with food (certified rat diet; Jiangsu Xietong Pharmaceutical Biological Engineering Co., Ltd, Jiangsu, China) and water available ad libitum. […] Urine, feces, and cage rinse/wash up to 168 hours after treatment were collected from six intact rats (three male, three female); bile, urine, feces, and cage rinse/wash up to 72 hours after treatment were collected from eight bile duct cannulated (BDC) rats (four male, four female). Heart, lung, liver, spleen, kidneys, whole brain, stomach tract wall, intestinal tract wall, skeletal muscle, body fat, reproductive organs (uterus and ovary for female rats, testis and epididymis for male rats) were collected at 2, 6, 24, and 72 hours after treatment (three male, three female per time point). The total radioactivity (TRA) of plasma, bile, urine, and cage rinse/wash samples was directly analyzed by liquid scintillation counting. Fecal and tissue homogenates and blood were combusted using a PerkinElmer Oxidizer (PerkinElmer Inc.), and the generated [^14C]CO2 was captured in ^14C scintillation cocktail (Shimadzu Corporation, Kyoto, Japan), followed by analysis using a PerkinElmer Liquid Scintillation Counter (PerkinElmer Inc.). The TRA levels determined in bile, urine, feces, and cage rinse/wash were used to calculate the percentage of the administered dose excreted. Mean TRA values of whole brain and plasma at 2, 6, 24, and 72 hours were used to calculate the area under concentration–time curve from time zero to 72 hours (AUC0–72), using a noncompartmental model in Phoenix WinNonlin v6.3 software (Certara, Princeton, NJ, USA).

A short description of data set [6]: Excretion of radioactivity in bile duct cannulated (BDC) rats. In kind it is in vivo, Sprague Dawley rats. As for the experimental part: as §3

In the case of `CCN1CCN(Cc2ccc(Nc3ncc(F)c(-c4cc(F)c5nc(C)n(C(C)C)c5c4)n3)nc2)CC1` [Abemaciclib, abemaciclib, reference compound], the IC50 was determined as 471 nM with SW1088 (Homo sapiens); 2070 nM with NCI-H2228 [1] (Homo sapiens); 25 nM in the data set with LoVo (Homo sapiens); 3230 nM with NCI-H1581 (Homo sapiens); 654 nM in the data set on NCI-H460 (Homo sapiens); 324 nM with NCI-H1915 (Homo sapiens). Besides, the IC50 in the data set on SK-HEP-1 (Homo sapiens, SK-HEP1) was found to be 6 nM; in the data set on SNU-449 (Homo sapiens), 159 nM; in the data set with MHCC97H (Homo sapiens), 137 nM. For the same compound, the “Kp,uu” value in data set [2] is reported as 0.03.

For `CC1=Nc2c(F)cc(-c3nc(Nc4ccc(C5CCN(C)CC5)cn4)ncc3F)cc2C12CCCC2` [GLR2007], the “TGI (%)” value in the data set on NCI-H2228 [3] was 33.9%. Further, the IC50 came to 143 nM in the data set with SW1088; 2050 nM in the data set with NCI-H2228 [1]; 13 nM in the data set on LoVo; 1120 nM with NCI-H1581; 235 nM in the data set with NCI-H460; 53 nM in the data set with NCI-H1915. In addition, the IC50 was determined as 36 nM in the data set on SK-HEP-1; 67 nM in the data set on SNU-449; 66 nM in the data set with MHCC97H; 2020 nM in the data set with CT26.WT; 2120 nM in the data set with BRL. For the same compound, the “Substrate of efflux transporter BCRP” value in [4] was “not a substrate”. For the same compound, in the data set with P-glycoprotein, the “Substrate of efflux transporter P-glycoprotein” value is listed as “not a substrate”. In the data set with U87-MG, the Cell cycle effect entry is “induce G1 arrest”. The “Radioactivity excreted via feces” value in data set [5] (single oral 6 mg/100 μCi/kg) is 84.10%. Further, the Dose recovered in [5] (within 168 hours, single oral 6 mg/100 μCi/kg) turned out to be 95.5%; in data set [5] (within the first 48 hours) it was 74.3%; in [6] (BDC rats, within 72 hours, single oral 6 mg/100 μCi/kg), 84.2%. Also, the “Dose recovered in bile” value in data set [6] (BDC rats, within 72 hours) was 33.3%. The “Dose predicted to be absorbed” value in data set [6] (based on excretion in bile and urine from BDC rats) is “at least 42.4%”.

The values above are taken from PMC9403987 (Frontiers in Oncology, 2022).
